In patent US12559496B2, “Imidazopyrimidines as modulators of IL-17” (Janssen Pharmaceutica NV, priority 2020, dated 2026):

Assays:
[1] = target: IL-17A(FLAG-Tagged): IL-17RA(His-Tagged) (Homo sapiens, UniProt Q16552, K93Q); assay: IL-17A(FLAG-Tagged): IL-17RA(His-Tagged) Binding Disruption Eu-HTRF Assay; conditions: disruption of IL-17A/IL-17RA binding; simple average if tested more than once
Description: IL-17A(FLAG-Tagged): IL-17RA(His-Tagged) Binding Disruption Eu-HTRF Assay
An antibody directed against the FLAG tag of IL-17A (SEQ ID NO: 1) is labeled with the HTRF donor chromophore (Europium-cryptate). IL-17A is present as a dimer that is “locked into” this quaternary structure due to the formation of loop-spanning […] disulfide bridges. The construct of IL-17RA used in the assay excludes the […] portion of the receptor and is fused to a C-terminal 10×His tag (SEQ ID NO:2). An antibody directed against the His tag of the IL-17RA chimera is labeled with the HTRF acceptor chromophore (“D2”). The fluorescence-resonance energy transfer (FRET) depends on the vicinity of the donor chromophore to the acceptor, and interruption of the binding between the IL-17A and IL-17RA causes the reduction/loss of FRET. Therefore, this assay allows to evaluate the compound effect on the binding IL-17A and IL-17RA by monitoring the fluorescence intensity of donor vs acceptor. The assay is run as described below.
40 nL of 2-fold serial diluted compound solution for total 22 dilution points is added into each well of a 1536-well, white, low-volume, non-binding plate (Greiner #782904), then 2 μL of FLAG tagged IL-17A at 2× final concentration (2.5 nM) in solution of PBS+0.01% Triton-X100 is added to each well. The assay plate is briefly centrifuged then incubated for 1 h at rt. A mixed solution is prepared containing 2×5 nM 10HIS×IL-17RA, 2×2.5 nM Eu-anti-FLAG (CISBIO), 2×5 nM D2-anti-HIS (CISBIO) in PBS+0.01% Triton-X100+200 mM Potassium Fluoride (Sigma 60238) and 2 μL of mix is added to each well of the assay plate. The plate is briefly centrifuged then incubated for 2 h at rt. The HTRF intensities at the wavelength of donor (620 nm) and acceptor (665 nm) are measured using BMG Pherastar. The ratio between intensities at two wavelengths is calculated and plotted against the compound concentration and the data is fitted to a one-site competition model to yield IC50 of the compound.

[2] = tested on: IL-17A-induced G-CSF production in human normal keratinocytes (NHK); assay: NHK Assay: IL-17A-induced G-CSF production in human normal keratinocytes; format: cell-based; conditions: 24 h, IL-17A 5 ng/mL, 5% FBS, simple average if tested more than once
Protocol: IL-17A acts directly on keratinocytes through binding to dimeric receptor IL-17RA/RC and drives the production of a number of inflammatory mediators known to be elevated in psoriasis lesional tissue. IL-17A small molecule inhibitors that block the IL-17A to interact with IL-17R would inhibit the IL-17A signaling in its targeted cells such as keratinocytes. The compound functional activity is evaluated for its impact on IL-17A-induced G-CSF production in human normal keratinocytes (NHK).
Adult normal human keratinocytes are cultured in keratinocyte growth medium (Lonza) in a flask till reaching ˜ 90% confluence, then cells are transferred to a 384-well plate at density of 3000-4000 cell/well. Recombinant human IL-17A (Gibco PHC9174) is pre-incubated with titrated compound or DMSO for 1 h at rt then added to the cell culture plate. The final concentration of IL-17A is 5 ng/mL and DMSO is 0.2%, in the culture containing 5% FBS. Cells are cultured/treated for 24 h at 37° C. Supernatants are collected and G-CSF production is measured through HTRF technology using Human G-CSF Kit (CisBio). G-CSF concentration was extrapolated from the standard curve and IC50 is determined using GraphPad Prism. Cell viability is also evaluated using CellTiter-Glo kit (Promega) and effect of compound on cell viability is compared to DMSO control.

UniProt Q16552, sequence (Q16552 with tags, fused parts or gaps K93Q): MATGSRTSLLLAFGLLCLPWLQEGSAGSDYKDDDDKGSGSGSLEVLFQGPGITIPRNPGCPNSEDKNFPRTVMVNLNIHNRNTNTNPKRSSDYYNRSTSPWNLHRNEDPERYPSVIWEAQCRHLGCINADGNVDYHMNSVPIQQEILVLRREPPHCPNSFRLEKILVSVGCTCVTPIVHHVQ

IC50 [1]	SMILES	IC50 ([2]; Homo sapiens, Keratinocyte)	IC50 [2]
660 nM	O=C(CC1CC(F)(F)C1)N[C@@H](c1ccn2cc([C@@H](NC(=O)[C@@H]3C[C@H]3C(F)(F)F)C3CCC(F)(F)CC3)nc2n1)C1CC1 (relative stereo) [Example 11, trans-(1S*,2S*)—N—((S)-(7-((R)-Cyclopropyl(2-(3,3-difluorocyclobutyl)acetamido)methyl)imidazo[1,2-a]pyrimidin-2-yl)(4,4-difluorocyclohexyl)methyl)-2-(trifluoromethyl)cyclopropane-1-carboxamide]	540 nM	–
6000 nM	O=C(CC1CC(F)(F)C1)N[C@@H](c1ccn2cc([C@@H](NC(=O)[C@H]3C[C@@H]3C(F)(F)F)C3CCC(F)(F)CC3)nc2n1)C1CC1 (relative stereo) [Example 12, trans-(1R*,2R*)—N—((S)-(7-((R)-Cyclopropyl(2-(3,3-difluorocyclobutyl)acetamido)methyl)imidazo[1,2-a]pyrimidin-2-yl)(4,4-difluorocyclohexyl)methyl)-2-(trifluoromethyl)cyclopropane-1-carboxamide]	> 20000 nM	–
290 nM	O=C(CCC(F)(F)F)NC(c1ccn2cc([C@@H](NC(=O)c3cnnn3CCC(F)(F)F)C3CCC(F)(F)CC3)nc2n1)C1CC1 (single isomer, unassigned) [Example 1, N—((S)-(7-((R*)-Cyclopropyl(4,4,4-trifluorobutanamido)methyl)imidazo[1,2-a]pyrimidin-2-yl)(4,4-difluorocyclohexyl)methyl)-1-(3,3,3-trifluoropropyl)-1H-1,2,3-triazole-5-carboxamide]	–	390 nM
3700 nM	O=C(CCC(F)(F)F)NC(c1ccn2cc([C@@H](NC(=O)c3cnnn3CCC(F)(F)F)C3CCC(F)(F)CC3)nc2n1)C1CC1 (single isomer, unassigned) [Example 2, N—((S)-(7-((S*)-Cyclopropyl(4,4,4-trifluorobutanamido)methyl)imidazo[1,2-a]pyrimidin-2-yl)(4,4-difluorocyclohexyl)methyl)-1-(3,3,3-trifluoropropyl)-1H-1,2,3-triazole-5-carboxamide]	–	6200 nM
3100 nM	CC(CC(=O)N[C@H](c1ccn2cc([C@@H](NC(=O)c3ccnc(CC(F)(F)F)c3)C3CCC(F)(F)CC3)nc2n1)C1CC1)C(F)(F)F (single isomer, unassigned) [Example 3, N—((S)-(7-((S)-Cyclopropyl((R*)-4,4,4-trifluoro-3-methylbutanamido)methyl)imidazo[1,2-a]pyrimidin-2-yl)(4,4-difluorocyclohexyl)methyl)-2-(2,2,2-trifluoroethyl)isonicotinamide]	640 nM	–
1800 nM	CC(CC(=O)N[C@H](c1ccn2cc([C@@H](NC(=O)c3ccnc(CC(F)(F)F)c3)C3CCC(F)(F)CC3)nc2n1)C1CC1)C(F)(F)F (single isomer, unassigned) [Example 4, N—((S)-(7-((S)-Cyclopropyl((S*)-4,4,4-trifluoro-3-methylbutanamido)methyl)imidazo[1,2-a]pyrimidin-2-yl)(4,4-difluorocyclohexyl)methyl)-2-(2,2,2-trifluoroethyl)isonicotinamide]	–	1200 nM
700 nM	CC(CC(=O)N[C@@H](c1ccn2cc([C@@H](NC(=O)[C@@H]3C[C@H]3C(F)(F)F)C3CCC(F)(F)CC3)nc2n1)C1CC1)C(F)(F)F (single isomer, unassigned) [Example 5]	960 nM	–
2700 nM	CC(CC(=O)N[C@@H](c1ccn2cc([C@@H](NC(=O)[C@H]3C[C@@H]3C(F)(F)F)C3CCC(F)(F)CC3)nc2n1)C1CC1)C(F)(F)F (single isomer, unassigned) [Example 6]	2100 nM	–
520 nM	CC(CC(=O)N[C@H](c1ccn2cc([C@@H](NC(=O)c3conc3CCC(F)(F)F)C3CCC(F)(F)CC3)nc2n1)C1CC1)C(F)(F)F (single isomer, unassigned) [Example 7, N—((S)-(7-((S)-Cyclopropyl((S*)-4,4,4-trifluoro-3-methylbutanamido)methyl)imidazo[1,2-a]pyrimidin-2-yl)(4,4-difluorocyclohexyl)methyl)-3-(3,3,3-trifluoropropyl)isoxazole-4-carboxamide]	–	880 nM
1100 nM	CC(CC(=O)N[C@H](c1ccn2cc([C@@H](NC(=O)c3conc3CCC(F)(F)F)C3CCC(F)(F)CC3)nc2n1)C1CC1)C(F)(F)F (single isomer, unassigned) [Example 8, N—((S)-(7-((S)-Cyclopropyl((R*)-4,4,4-trifluoro-3-methylbutanamido)methyl)imidazo[1,2-a]pyrimidin-2-yl)(4,4-difluorocyclohexyl)methyl)-3-(3,3,3-trifluoropropyl)isoxazole-4-carboxamide]	–	6000 nM
1800 nM	CC(CC(=O)N[C@H](c1ccn2cc([C@@H](NC(=O)c3conc3C3CC3)C3CCC(F)(F)CC3)nc2n1)C1CC1)C(F)(F)F (single isomer, unassigned) [Example 9, 3-Cyclopropyl-N—((S)-(7-((S)-cyclopropyl((S*)-4,4,4-trifluoro-3-methylbutanamido)methyl)imidazo[1,2-a]pyrimidin-2-yl)(4,4-difluorocyclohexyl)methyl)isoxazole-4-carboxamide]	–	610 nM
4100 nM	CC(CC(=O)N[C@H](c1ccn2cc([C@@H](NC(=O)c3conc3C3CC3)C3CCC(F)(F)CC3)nc2n1)C1CC1)C(F)(F)F (single isomer, unassigned) [Example 10, 3-Cyclopropyl-N—((S)-(7-((S)-cyclopropyl((R*)-4,4,4-trifluoro-3-methylbutanamido)methyl)imidazo[1,2-a]pyrimidin-2-yl)(4,4-difluorocyclohexyl)methyl)isoxazole-4-carboxamide]	–	5800 nM
220 nM	CC(C)n1ncnc1C(=O)N[C@H](c1cn2ccc([C@H](NC(=O)CC(C)C(F)(F)F)C3CC3)nc2n1)C1CCC(F)(F)CC1 (single isomer, unassigned) [Example 17, N—((S)-(7-((R)-Cyclopropyl((S*)-4,4,4-trifluoro-3-methylbutanamido)methyl)imidazo[1,2-a]pyrimidin-2-yl)(4,4-difluorocyclohexyl)methyl)-1-isopropyl-1H-1,2,4-triazole-5-carboxamide]	1100 nM	–
580 nM	CC(C)n1ncnc1C(=O)N[C@H](c1cn2ccc([C@H](NC(=O)CC(C)C(F)(F)F)C3CC3)nc2n1)C1CCC(F)(F)CC1 (single isomer, unassigned) [Example 18, N—((S)-(7-((R)-Cyclopropyl((R*)-4,4,4-trifluoro-3-methylbutanamido)methyl)imidazo[1,2-a]pyrimidin-2-yl)(4,4-difluorocyclohexyl)methyl)-1-isopropyl-1H-1,2,4-triazole-5-carboxamide]	–	2000 nM
260 nM	CC(CC(=O)N[C@@H](c1ccn2cc([C@@H](NC(=O)c3ncnn3CC3CC3)C3CCC(F)(F)CC3)nc2n1)C1CC1)C(F)(F)F (single isomer, unassigned) [Example 19, N—((S)-(7-((R)-Cyclopropyl((S*)-4,4,4-trifluoro-3-methylbutanamido)methyl)imidazo[1,2-a]pyrimidin-2-yl)(4,4-difluorocyclohexyl)methyl)-1-(cyclopropylmethyl)-1H-1,2,4-triazole-5-carboxamide]	–	1200 nM
